# Read-outs that look alike come from different tables or passages of the source.
# Legend:
# [1] = tested on: Pseudomonas aeruginosa ATCC27853; experiment: Antimicrobial MIC, agar dilution
# [2] = tested on: Candida albicans (local isolate); experiment: Antimicrobial MIC, agar dilution; conditions: Candida albicans, read-out: Minimum inhibitory concentration (MIC)
# [3] = tested on: Staphylococcus aureus ATCC25923; experiment: Antimicrobial MIC, agar dilution
# [4] = tested on: Salmonella typhi ATCC19430; experiment: Antimicrobial MIC, agar dilution; format: cell-based; conditions: Salmonella enterica, read-out: Minimum inhibitory concentration (MIC)
# [5] = tested on: A-549 (lung) carcinoma cell line; experiment: Anti-tumor properties, MTT; format: cell-based; conditions: Homo sapiens, A549
# [6] = tested on: lipopolysaccharide-stimulated peritoneal macrophages; experiment: Production of nitric oxide by lipopolysaccharide-stimulated peritoneal macrophages (Greiss reagent); format: cell-based; set-up: Potency (%): % inhibition of nitric oxide production relative to lipopolysaccharide-stimulated macrophages: concentration or dose not given beside the values; conditions: LPS-stimulated peritoneal macrophages
# Summary of the method: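 Macrophages in nitrite-free medium with 0.1% BSA were stimulated with LPS at 0.5–10 ng/ml, some wells also receiving epinephrine, norepinephrine or dopamine at […], for 24 h at 37° C. Nitrite in supernatants was measured with Greiss reagent, 15 min at room temperature, absorbance 532 nm.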
# [7] = tested on: MCF7 (breast) carcinoma cell line; experiment: Anti-tumor properties, MTT; format: cell-based; conditions: Homo sapiens, MCF7; read-out: IC50 (μM) MCF7 (breast)
# Summary of the method: (§1)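 Cells seeded at 10×10^3 per well for 24 h, then exposed to compound in serum-free medium (final up to 100 μM, 0.5% DMSO vehicle) for 72 h in triplicate. Viability by MTT reduction (4 h, SDS solubilised), absorbance 595 nm/ref 620 nm; IC50 from survival curves.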
# [8] = tested on: HepG2 (hepatocellular) carcinoma cell line; experiment: Anti-tumor properties, MTT; format: cell-based; conditions: Homo sapiens, HepG2; read-out: IC50 (μM) HepG2 (liver)
# Summary of the method: as §1
# [9] = tested on: HCT116 (colon) carcinoma cell line; experiment: Anti-tumor properties, MTT; format: cell-based; conditions: Homo sapiens, HCT-116; read-out: IC50 (μM) HCT116 (colon)
# Summary of the method: as §1
# [10] = tested on: gastric mucosa; experiment: Ulcerogenic liability (ulcer index); format: in vivo, albino mice; conditions: orally, three successive days, 10 mg/kg indomethacin mol equivalent
# Summary of the method: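 Albino mice were fasted 18 h before dosing, and controls got saline with a few drops of Tween 80. Gastric mucosa was checked under a 10× lens for lesions and erosions. The ulcer index combines percentage incidence divided by 10, mean ulcers per stomach and mean severity.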
# [11] = tested on: PC3 (prostate) carcinoma cell line; experiment: Anti-tumor properties, MTT; format: cell-based; conditions: Homo sapiens
# [12] = tested on: Streptococcus pyogenes ATCC19615; experiment: Antimicrobial MIC, agar dilution
# [13] = tested on: PHA-stimulated splenocytes; experiment: Proliferative response of PHA-stimulated splenocytes (MTT assay); format: cell-based; conditions: PHA 5 μg/ml, 72 hr; compounds at 5 μM (method says 10 μM); ratio of O.D. versus vehicle control
# Summary of the method: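 Freshly prepared splenocytes (1×10^6 cells/well) were cultured for 72 h at 37° C with compound at 10 μM final, with or without PHA (5 μg/ml). Viability was read by MTT (4 h), with absorbance at 570 nm against 690 nm reference. Stimulation index is the OD ratio of treated versus vehicle cultures.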
structure (smiles),measurement,setting,value
"COc1cc(/C=C/C(=O)CC(=O)/C=C/c2ccc(OC(=O)[C@@H](CCSC)NC(=O)OCc3ccccc3)c(OC)c2)ccc1OC(=O)[C@@H](CCSC)NC(=O)OCc1ccccc1 [Z-D-Met-Cur, ((1E,6E)-3,5-dioxohepta-1,6-diene-1,7-diyl)bis(2-methoxy-4,1-phenylene) (2R,2′R)-bis(2-(((benzyloxy)carbonyl)amino)-4-(methylthio)butanoate)]",MIC,"[1]; ATCC27853, 18 h, read-out: Minimum inhibitory concentration (MIC)",1 µg/mL
same,MIC,"[1]; ATCC27853, read-out: Minimum inhibitory concentration (MIC)",1.11 µM
same,MIC,[2]; 18 h,0.125 µg/mL
same,MIC,[2],0.139 µM
same,MIC,"[3]; ATCC25923, 18 h, read-out: Minimum inhibitory concentration (MIC)",0.125 µg/mL
same,MIC,"[3]; ATCC25923, read-out: Minimum inhibitory concentration (MIC)",0.139 µM
same,MIC,[4]; 18 h,0.5 µg/mL
same,MIC,[4],0.556 µM
same,IC50,[5],> 100 µM
same,Potency (%): % inhibition of nitric oxide production relative to lipopolysaccharide-stimulated macrophages,[6],40.84%
same,"Nitric oxide (nitrite) concentration, μM (average ± SD)","[6]; 24 h, nitrite by Greiss reagent",16.16 ± 1.90 µM
same,IC50,[7],> 100 µM
same,IC50,[8],> 100 µM
same,IC50,[9],> 100 µM
same,% Incidence of ulcer divided by 10,[10],0
same,Average of ulcer number,[10],0
same,Average severity of ulcer,[10],0
same,Number of animals with ulcer,[10]; 6 animals per group,0/6
same,Ulcer index,[10]; sum of the three values,0
same,IC50,[11],> 100 µM
same,MIC,"[12]; ATCC19615, 18 h, read-out: Minimum inhibitory concentration (MIC)",0.125 µg/mL
same,MIC,"[12]; ATCC19615, read-out: Minimum inhibitory concentration (MIC)",0.139 µM
same,Stimulation Index (average ± SD),[13],1.37 ± 0.29
